# Bridge positions count the residues as written; N and C are the ends. Ends that are not written are not given here.
# Legend:
# [1] = test system: 18 subtypes of voltage-gated potassium and voltage-gated sodium channels; assay: Electrophysiological screening, overall; type: cell-based; settings: 10 µM, Xenopus laevis oocytes
# Text: (§1) For the expression of Nav channels (mammalian rNav1.2, rNav1.4, hNav1.5, mNav1.6 and hNav1.8 channels; the insect channel BgNav1 from Blattella germanica; and the auxiliary subunits rβ1, hβ1, and TipE) and Kv channels (mammalian rKv1.1, rKv1.2, hKv1.3, rKv1.4, rKv1.5, rKv1.6, rKv2.1, hKv3.1, rKv4.2, hKv10.1, and hERG; and Drosophila Shaker’s IR) in Xenopus laevis oocytes; the linearized plasmids were transcribed using the T7 or SP6 mMESSAGE-mMACHINE transcription kit (Ambion, Carlsbad, CA, USA). The harvesting of stage V–VI oocytes from anesthetized female Xenopus laevis frog was previously described. Oocytes were injected with 50 nL of cRNA at a concentration of 1 ng/nL using a microinjector (Drummond Scientific, Broomall, PA, USA). The oocytes were incubated in a solution containing 96-mM NaCl, 2-mM KCl, 1.8-mM CaCl2, 2-mM MgCl2, and 5-mM HEPES (pH 7.4), supplemented with 50 mg/L gentamycin sulfate.
# Two-electrode voltage-clamp recordings were performed at room temperature (18–22 °C) using a Geneclamp 500 amplifier (Molecular Devices, Downingtown, PA, USA) controlled by a pClamp data acquisition system (Axon Instruments, Union City, CA, USA). Whole cell currents from oocytes were recorded 1–4 days after injection. The bath solution’s composition was 96-mM NaCl, 2-mM KCl, 1.8-mM CaCl2, 2-mM MgCl2, and 5-mM HEPES (pH 7.4). Toxins were applied directly to the bath. Resistances of both electrodes were kept between 0.8 and 1.5 MΩ. The elicited currents were sampled at 20 kHz (Nav) or 2 kHz (Kv), filtered at 2 kHz (Nav) or 0.5 kHz (Kv) using a four-pole low-pass Bessel filter. Leak subtraction was performed using a -P/4 protocol. […] For the electrophysiological analysis, a number of protocols were applied from a holding potential of −90 mV with a start-to-start interval of 0.2 Hz. Kv1.1–Kv1.6 and Shaker currents were evoked by 250-ms depolarizations to 0 mV followed by a 250 ms pulse to −50 mV from a holding potential of −90 mV. […] All data were analyzed using pClamp Clampfit 10.0 (Molecular Devices, Downingtown, PA, USA) and Origin 7.5 software (Originlab, Northampton, MA, USA).
# [2] = test system: BgNav1; assay: Two-electrode voltage-clamp; type: cell-based, Blattella germanica; settings: 10 µM; insect channel; Xenopus laevis oocytes; 18–22 °C
# Text: as §1
# Two-electrode voltage-clamp recordings were performed at room temperature (18–22 °C) using a Geneclamp 500 amplifier (Molecular Devices, Downingtown, PA, USA) controlled by a pClamp data acquisition system (Axon Instruments, Union City, CA, USA). Whole cell currents from oocytes were recorded 1–4 days after injection. […] All data were analyzed using pClamp Clampfit 10.0 (Molecular Devices, Downingtown, PA, USA) and Origin 7.5 software (Originlab, Northampton, MA, USA).
# [3] = test system: fungi, Gram-positive or Gram-negative bacteria; assay: Antimicrobial screening, overall; type: cell-based; settings: 1, 5, 10, 20 µM
# Description: The antimicrobial activity of r-magnificamide was tested against Gram-positive (Staphylococcus aureus ATCC 21027 and Bacillus subtilis ATCC6633), Gram-negative bacteria (Escherichia coli VKPM B-7935 and Pseudomonas aeruginosa ATCC 27853), and the fungus Candida albicans KMM 455 by the agar dilution method. Microbial strains were taken from the American Type Culture Collection (ATCC), Russian National Collection of Industrial Microorganisms (VKPM), and Collection of Marine Microorganisms (KMM) (Pacific Institute of Bioorganic Chemistry FEB RAS). To obtain a microbial lawn, 0.1 mL of a cell suspension (0.5 × 10^8 cells/mL) was uniformly distributed on agar surface in Petri dishes (15 g/L tryptic soy broth, 2 g/L bacto yeast extract, 1 g/L glucose, and 20 g/L agar for bacteria; for fungi 10 g/L of glucose was added). Wells with a diameter of 6 mm were punched into the agar and filled with 100 µL of the peptide solution at concentrations 1, 5, 10, and 20 µM. The plates were then incubated for 18 h at 37 °C for bacteria, and at 30 °C for the fungus. Minimum inhibitory concentration was determined by measuring the clear zone of inhibition around each well. All assays were performed independently three times.
# [4] = test system: rKv4.2; assay: Two-electrode voltage-clamp; type: cell-based, mammalian; settings: 10 µM; Xenopus laevis oocytes; 18–22 °C
# Text: as §1
# (§2) Two-electrode voltage-clamp recordings were performed at room temperature (18–22 °C) using a Geneclamp 500 amplifier (Molecular Devices, Downingtown, PA, USA) controlled by a pClamp data acquisition system (Axon Instruments, Union City, CA, USA). Whole cell currents from oocytes were recorded 1–4 days after injection. The bath solution’s composition was 96-mM NaCl, 2-mM KCl, 1.8-mM CaCl2, 2-mM MgCl2, and 5-mM HEPES (pH 7.4). Toxins were applied directly to the bath. Resistances of both electrodes were kept between 0.8 and 1.5 MΩ. The elicited currents were sampled at 20 kHz (Nav) or 2 kHz (Kv), filtered at 2 kHz (Nav) or 0.5 kHz (Kv) using a four-pole low-pass Bessel filter. Leak subtraction was performed using a -P/4 protocol. […] For the electrophysiological analysis, a number of protocols were applied from a holding potential of −90 mV with a start-to-start interval of 0.2 Hz. Kv1.1–Kv1.6 and Shaker currents were evoked by 250-ms depolarizations to 0 mV followed by a 250 ms pulse to −50 mV from a holding potential of −90 mV. Current traces of hERG channels were elicited by applying a +40 mV prepulse for 2 s followed by −120 mV for 2 s. Kv2.1, Kv3.1, and Kv4.2 currents were elicited by 250 ms pulses to +20 mV from a holding potential of −90 mV. Kv10.1 currents were evoked by 2-s depolarizing pulses to 0 mV from a holding potential of −90 mV. Sodium current traces were evoked by 100-ms depolarization to the voltage corresponding to maximal sodium current in control conditions. All data were analyzed using pClamp Clampfit 10.0 (Molecular Devices, Downingtown, PA, USA) and Origin 7.5 software (Originlab, Northampton, MA, USA).
# [5] = test system: rNav1.2; assay: Two-electrode voltage-clamp; type: cell-based, mammalian; settings: 10 µM; Xenopus laevis oocytes; 18–22 °C
# Text: as §1, §2
# [6] = test system: hKv10.1; assay: Two-electrode voltage-clamp; type: cell-based, mammalian; settings: 10 µM; Xenopus laevis oocytes; 18–22 °C
# Text: as §1, §2
# [7] = test system: hNav1.8; assay: Two-electrode voltage-clamp; type: cell-based, mammalian; settings: 10 µM; Xenopus laevis oocytes; 18–22 °C
# Text: as §1, §2
# [8] = test system: hKv1.3; assay: Two-electrode voltage-clamp; type: cell-based, mammalian; settings: 10 µM; Xenopus laevis oocytes; 18–22 °C
# Text: as §1, §2
# [9] = test system: rKv2.1; assay: Two-electrode voltage-clamp; type: cell-based, mammalian; settings: 10 µM; Xenopus laevis oocytes; 18–22 °C
# Text: as §1, §2
# [10] = test system: hKv3.1; assay: Two-electrode voltage-clamp; type: cell-based, mammalian; settings: 10 µM; Xenopus laevis oocytes; 18–22 °C
# Text: as §1, §2
# [11] = test system: rKv1.1; assay: Two-electrode voltage-clamp; type: cell-based, mammalian; settings: 10 µM; Xenopus laevis oocytes; 18–22 °C
# Text: as §1, §2
# [12] = test system: rKv1.2; assay: Two-electrode voltage-clamp; type: cell-based, mammalian; settings: 10 µM; Xenopus laevis oocytes; 18–22 °C
# Text: as §1, §2
# [13] = test system: hNav1.5; assay: Two-electrode voltage-clamp; type: cell-based, mammalian; settings: 10 µM; Xenopus laevis oocytes; 18–22 °C
# Text: as §1, §2
# [14] = test system: hERG; assay: Two-electrode voltage-clamp; type: cell-based, mammalian; settings: 10 µM; Xenopus laevis oocytes; 18–22 °C
# Text: as §1, §2
# [15] = test system: rKv1.5; assay: Two-electrode voltage-clamp; type: cell-based, mammalian; settings: 10 µM; Xenopus laevis oocytes; 18–22 °C
# Text: as §1, §2
# [16] = test system: rKv1.4; assay: Two-electrode voltage-clamp; type: cell-based, mammalian; settings: 10 µM; Xenopus laevis oocytes; 18–22 °C
# Text: as §1, §2
# [17] = test system: rNav1.4; assay: Two-electrode voltage-clamp; type: cell-based, mammalian; settings: 10 µM; Xenopus laevis oocytes; 18–22 °C
# Text: as §1, §2
# [18] = test system: mNav1.6; assay: Two-electrode voltage-clamp; type: cell-based, mammalian; settings: 10 µM; Xenopus laevis oocytes; 18–22 °C
# Text: as §1, §2
# [19] = test system: rKv1.6; assay: Two-electrode voltage-clamp; type: cell-based, mammalian; settings: 10 µM; Xenopus laevis oocytes; 18–22 °C
# Text: as §1, §2
# [20] = listed as recombinant analog of magnificamide
sequence,measurement,setting,value
"SEGTSCYIYHGVYGICKAKCAEDMKAMAGMGVCEGDLCCYKTPW (disulfide 6-38, 16-33, 20-39) [r-magnificamide]","Ion channel modulating activity, overall",[1]; listed as r-Magnificamide,did not reveal ion channel modulating activity
same,"Ion channel modulating activity, overall",[1]; [20],does not show antimicrobial or channel modulating activities
same,"Channel modulating activity, BgNav1",[2],Not active
same,"Antimicrobial activity, overall",[3],"did not reveal activity against fungi, Gram-positive or Gram-negative bacteria"
same,"Antimicrobial activity, overall",[3]; [20],does not show antimicrobial or channel modulating activities
same,"Channel modulating activity, Kv4.2",[4],Not active
same,"Channel modulating activity, Nav1.2",[5],Not active
same,"Channel modulating activity, Kv10.1",[6],Not active
same,"Channel modulating activity, Nav1.8",[7],Not active
same,"Channel modulating activity, Kv1.3",[8],Not active
same,"Channel modulating activity, Kv2.1",[9],Not active
same,"Channel modulating activity, Kv3.1",[10],Not active
same,"Channel modulating activity, Kv1.1",[11],Not active
same,"Channel modulating activity, Kv1.2",[12],Not active
same,"Channel modulating activity, Nav1.5",[13],Not active
same,"Channel modulating activity, hERG",[14],Not active
same,"Channel modulating activity, Kv1.5",[15],Not active
same,"Channel modulating activity, Kv1.4",[16],Not active
same,"Channel modulating activity, Nav1.4",[17],Not active
same,"Channel modulating activity, Nav1.6",[18],Not active
same,"Channel modulating activity, Kv1.6",[19],Not active

# — publication PMC6835510, “Magnificamide, a β-Defensin-Like Peptide from the Mucus of the Sea Anemone Heteractis magnifica, Is a Strong Inhibitor of Mammalian α-Amylases” (Marine Drugs, 2019)
